These results are taken from ChEMBL document CHEMBL1129862, “2,3-Substituted 2-azanorbornanes as polar -turn mimetics” (Bioorg Med Chem Lett, 1997).

Assay [1] deals with T1, Substance-K receptor (Mesocricetus auratus) (UniProt P51144).
T1 sequence (whole entry): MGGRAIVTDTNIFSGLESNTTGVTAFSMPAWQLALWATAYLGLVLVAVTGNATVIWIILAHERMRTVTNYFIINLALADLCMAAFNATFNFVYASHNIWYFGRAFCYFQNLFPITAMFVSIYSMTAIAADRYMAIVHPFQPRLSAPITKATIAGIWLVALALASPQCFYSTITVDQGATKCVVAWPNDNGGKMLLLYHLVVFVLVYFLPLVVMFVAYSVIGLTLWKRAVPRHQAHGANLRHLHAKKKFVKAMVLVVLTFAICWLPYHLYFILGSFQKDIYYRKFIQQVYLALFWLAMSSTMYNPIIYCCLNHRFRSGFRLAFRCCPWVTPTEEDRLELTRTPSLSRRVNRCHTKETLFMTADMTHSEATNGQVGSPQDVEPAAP
Description: Inhibition by the compound against [125I]NKA binding to neurokinin-2 (NK-2) receptor in hamster urinary bladder at 10 uM concentration.

Assay [2] addresses T2, Substance-P receptor (Homo sapiens, UniProt P25103). Description: Tested for binding affinity against [125I]BH-SP binding to neurokinin-1 (NK-1) receptor in human IM-9 cells. The class given is cell-based.
For assay [3], the target named is T3, Neuromedin-K receptor (Homo sapiens) (UniProt P29371).
T3 sequence (whole entry): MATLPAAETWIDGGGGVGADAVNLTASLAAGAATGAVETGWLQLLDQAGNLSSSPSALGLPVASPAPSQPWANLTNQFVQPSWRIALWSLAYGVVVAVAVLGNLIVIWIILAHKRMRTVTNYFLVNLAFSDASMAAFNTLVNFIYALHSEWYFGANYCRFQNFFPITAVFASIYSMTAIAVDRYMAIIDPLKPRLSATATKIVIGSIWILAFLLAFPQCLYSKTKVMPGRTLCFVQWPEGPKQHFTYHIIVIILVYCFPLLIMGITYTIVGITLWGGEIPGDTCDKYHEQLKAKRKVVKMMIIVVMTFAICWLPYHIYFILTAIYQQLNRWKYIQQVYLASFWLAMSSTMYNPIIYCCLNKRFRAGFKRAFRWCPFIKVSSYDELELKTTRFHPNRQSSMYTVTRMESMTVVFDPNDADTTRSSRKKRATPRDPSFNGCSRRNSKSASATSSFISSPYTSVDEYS
Kind of assay: Inhibition by the compound against [125I]-[MePhe]-NKB binding to human Tachykinin receptor 3 in stably expressed CHO cells at 10 uM concentration. The class given is cell-based.

In assay [4] the target is T4, Neuromedin-K receptor (Homo sapiens, UniProt P29371).
T4 sequence (P29371 whole entry): T3 sequence (whole entry)
Description: Tested for binding affinity of compound against [125I][MePhe]-NKB binding to human Tachykinin receptor 3 in stably expressed CHO cells; Inactive. The class given is cell-based.

The target of another assay is T5, Substance-K receptor (Mesocricetus auratus, UniProt P51144).
T5 sequence (P51144 whole entry): T1 sequence (whole entry)
Description: Tested for binding affinity of compound against [125I]NKA binding to neurokinin-2 (NK-2) receptor in hamster urinary bladder.

Assay [5] has as its target T2, Substance-P receptor. Description: Inhibition by the compound against [125I]BH-SP radioligand binding to neurokinin-1 (NK-1) receptor in human IM-9 cells at 10 uM concentration. The class given is cell-based.
Assay [6] deals with T4, Neuromedin-K receptor. Description: Tested for binding affinity of compound against [125I][MePhe]-NKB binding to Tachykinin receptor 3 in stably expressed CHO cells. The class given is cell-based.

Where a SMILES comes first, the peptide text is derived from it. Bridges are numbered along the chain shown (N, C = ends). [ ]: non-standard residue; d: D form. Dap = NC[C@H](N)C(=O)O

T2 sequence (P25103 whole entry): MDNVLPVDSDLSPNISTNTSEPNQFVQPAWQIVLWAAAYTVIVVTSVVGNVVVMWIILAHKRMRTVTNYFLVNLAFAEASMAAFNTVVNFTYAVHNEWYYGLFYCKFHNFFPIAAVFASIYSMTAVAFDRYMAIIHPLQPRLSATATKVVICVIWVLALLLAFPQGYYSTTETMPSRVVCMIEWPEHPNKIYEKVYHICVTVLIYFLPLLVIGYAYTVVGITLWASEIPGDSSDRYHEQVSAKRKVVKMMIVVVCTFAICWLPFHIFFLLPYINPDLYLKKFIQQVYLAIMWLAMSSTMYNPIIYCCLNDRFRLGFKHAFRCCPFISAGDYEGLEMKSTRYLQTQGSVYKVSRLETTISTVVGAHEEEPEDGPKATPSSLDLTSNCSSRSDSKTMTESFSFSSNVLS

For orientation: inhibition means the percentage by which the read-out fell short of the control. Low values mean little suppression, high ones strong suppression. What is called IC50 is the midpoint of a concentration-inhibition curve. In the case of `O=C(NCc1c[nH]c2ccccc12)N1C2CCC(C2)C1Cc1ccccc1` (stereo unspecified), the figures for the inhibition in assay [1] and in assay [3] were 31% and 35%, respectively. This molecule displayed an IC50 at Substance-P receptor [2] of 6.7 µM.
In assay [1], `O=C(Cc1c[nH]c2ccccc12)N1CCC(Cc2ccccc2)C1` (stereo unspecified) displayed an inhibition of 14%. This molecule also yielded a concentration for half-maximal inhibition (IC50) on Substance-P receptor [2] of 3.7 µM.
In the case of `CSCC[C@@H]1NC(=O)[C@H](CC(C)C)NC(=O)[C@@H]2CNC(=O)C[C@H](NC1=O)C(=O)N[C@@H](Cc1c[nH]c3ccccc13)C(=O)N[C@@H](Cc1ccccc1)C(=O)N2` (cyclo(DWF[Dap]LM); lactam 1-4), the IC50 is 0.8 µM on Substance-P receptor [2], “Not Active” at Neuromedin-K receptor [4] and 0.079 nM on Substance-K receptor.
For the molecule `O=C(NCc1cn(C(=O)OCc2ccccc2)c2ccccc12)N1C2CCC(C2)C1Cc1ccccc1` (stereo unspecified), the inhibition at Substance-P receptor [5] worked out at 55%; in assay [1], 18%. On Neuromedin-K receptor [6], this molecule returned an IC50 of 10 µM.
